Test system: mature cardiac construct
Assay: drug screening on mature cardiac construct in the microfluidic device (spontaneous contraction frequency)
Type: cell-based, neonatal rats
Settings: increasing concentrations 1 and 2 μg/ml in culture medium injected in sequence; evaluated 60 seconds after injection; 37° C.; with respect to control construct without drug
Protocol: The cells of interest were isolated using the following process. The cardiac tissue removed from the ventricles of neonatal rats was digested in trypsin (0.6 mg/ml, in a Hank balanced saline solution, HBSS) for 18 hours. The digestion was then blocked by adding 10 ml of culture medium (Dulbecco Modified Eagle's Medium, DMEM) containing: 10% of fetal bovine serum, 1% of penicillin-streptomycin, 1% of HEPES and 1% of L-Glutamine. The isolation of the cells from the matrix was then obtained with five passages in a solution of collagenase (1 mg/ml in HBSS) at 37° C. for 5 minutes. The cell suspension thus obtained was centrifuged at 700 rpm for 10 minutes, re-suspended in 25 ml of culture medium and seeded in a culture flask to isolate the fraction of cardiomyocytes (non-adherent).
For seeding inside the device, the cardiac cells thus isolated were diluted in a solution of fibrin gel at a cell concentration of 1×10^5 cells/μl. More specifically, for the seeding of 6 devices, 20 μl of fibrin gel were prepared by mixing 20×10^5 cells (estimated volume of 8.2 μl), 4 μl of calcium chloride, 4 μl of fibrinogen (20 mg/ml in sodium chloride), 2.8 μl of aprotinin (16 TIU/ml in distilled water) and 1 μl of thrombin (5 U/ml in calcium chloride). […]

## CCN(CC)CC(=O)Nc1c(C)cccc1C [lidocaine]
  spontaneous contraction frequency: decrease in the contraction frequency
